According to PubChem BioAssay (NCI):
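Five concentrations, 48 hours, 96-well plates. GI50 marks 50% less growth. TGI: total growth inhibition.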

Assays:
Assay in all cases: NCI-60 cell line screen, 48 h
CCRF-CEM leukemia = test system: CCRF-CEM leukemia
HOP-92 NSCLC = test system: HOP-92 NSCLC
LOX IMVI melanoma = test system: LOX IMVI melanoma
NCI-H226 lung = test system: NCI-H226 lung
NCI-H522 lung = test system: NCI-H522 lung
SF-295 CNS = test system: SF-295 CNS
SK-MEL-5 melanoma = test system: SK-MEL-5 melanoma
SK-OV-3 ovarian = test system: SK-OV-3 ovarian
UACC-257 melanoma = test system: UACC-257 melanoma
UO-31 renal = test system: UO-31 renal

| Compound | TGI (CCRF-CEM leukemia) | TGI (HOP-92 NSCLC) | TGI (LOX IMVI melanoma) | TGI (NCI-H226 lung) | TGI (NCI-H522 lung) | TGI (SF-295 CNS) | TGI (SK-MEL-5 melanoma) | TGI (SK-OV-3 ovarian) | TGI (UACC-257 melanoma) | TGI (UO-31 renal) | GI50 (HOP-92 NSCLC) | GI50 (LOX IMVI melanoma) | GI50 (NCI-H226 lung) | GI50 (NCI-H522 lung) | GI50 (SF-295 CNS) | GI50 (SK-MEL-5 melanoma) | GI50 (SK-OV-3 ovarian) | GI50 (UACC-257 melanoma) | GI50 (UO-31 renal) | GI50 (CCRF-CEM leukemia) |
| --- | --- | --- | --- | --- | --- | --- | --- | --- | --- | --- | --- | --- | --- | --- | --- | --- | --- | --- | --- | --- |
| COc1cc(NCc2ccc3oc(=O)c(-c4ccccc4)nc3c2)cc(OC)c1OC | > 10 µM | > 10 µM | > 10 µM | > 10 µM | > 10 µM | > 10 µM | > 10 µM | > 10 µM | > 10 µM | > 10 µM |  |  |  |  |  |  |  |  |  |  |
| CN(C(=O)c1ccc(C(F)(F)F)cc1)c1ccc(Oc2ccc3c(c2)cc(C(=O)N2CCN(Cc4ccc(OC(F)F)cc4)CC2)n3C)nc1 | > 100 µM | > 88.2 µM | > 100 µM | > 100 µM | > 90 µM | > 100 µM | 4.82 µM | > 100 µM | > 100 µM | > 100 µM | 3.02 µM | 0.882 µM | 1.44 µM | 0.677 µM | < 0.01 µM | < 0.0213 µM | > 100 µM | 0.138 µM | 4.22 µM |  |
| Fc1cc2[nH]ncc2c2c3c(c(-c4cn[nH]c4)nc12)CCCC3 | > 100 µM | 5.66 µM | 2.4 µM | 5.85 µM | 6.12 µM | 6.44 µM | 2.12 µM | 1.24 µM | 5.69 µM | 3.87 µM | 1.48 µM | 0.486 µM | 1.28 µM | 0.829 µM | 1.44 µM | 0.552 µM | 0.287 µM | 1.72 µM | 0.896 µM | 1.13 µM |
| O=C1c2cc3c(cc2-c2c1c1ccc(F)cc1c(=O)n2CCCNCCO)OCO3 | 1.27 µM | 0.845 µM | 0.0582 µM | 0.192 µM | 0.106 µM | 0.114 µM | 0.232 µM | 0.566 µM | 0.853 µM | 0.148 µM | 0.198 µM | 0.0139 µM | 0.0411 µM | 0.014 µM | 0.0224 µM | 0.109 µM | 0.0525 µM | 0.123 µM | 0.0292 µM | 0.0301 µM |
| CCN1CCN(c2nc(C)cc(N(CCNc3ccnc4cc(Cl)ccc34)Cc3ccc4c(c3)OCO4)n2)CC1 | 5.88 µM | 2.67 µM | 3.35 µM | 33.6 µM | 4.06 µM | 3.38 µM | 3.17 µM | 8.73 µM | 3.6 µM | 2.72 µM | 1.17 µM | 1.77 µM | 15 µM | 1.95 µM | 1.76 µM | 1.74 µM | 2.99 µM | 1.83 µM | 1.36 µM | 2.12 µM |
| Cc1cc(I)cc(CN(C)CCCN2CCCCC2)c1O | 43.4 µM | 38.6 µM | 28.5 µM | > 100 µM | 31.4 µM | 12.9 µM | 20.7 µM | 31.6 µM | 31.9 µM | 31.1 µM | 11.6 µM | 13.5 µM | 28.1 µM | 16.7 µM | 2.39 µM | 8.5 µM | 15.7 µM | 16.4 µM | 11.8 µM | 18.6 µM |
| Cc1cc(-c2ccc3nc(C4CCOCC4)n(CCOC(F)(F)F)c3c2)cn(C)c1=O | > 100 µM | 36.6 µM | 1.06 µM | 8.47 µM | 9.31 µM |  | 1.27 µM | 1.25 µM |  | > 20.7 µM | 0.182 µM |  |  | 0.244 µM | 0.748 µM |  |  |  |  | 1.71 µM |
| CN(C)c1nc(=Nc2ccc(N=c3nc(N(C)C)ss3)cc2)ss1 | 27.7 µM | > 100 µM | > 67.9 µM | > 100 µM | 25.8 µM | > 100 µM | > 61.2 µM | > 100 µM | > 91.4 µM | > 81.6 µM |  |  |  |  |  |  |  |  |  |  |
| CCOC(=O)c1cc2nc3ccccc3c(=O)n2c2ccccc12 | > 10 µM | > 10 µM | > 10 µM | > 10 µM | > 10 µM | > 10 µM | > 10 µM | > 10 µM | > 10 µM | > 10 µM |  |  |  |  |  |  |  |  |  |  |
| COc1cc(OC)cc(-c2cc(=O)c3c(OC)c(OC)c(OC)c(OC)c3o2)c1 | > 100 µM | 90.8 µM | > 100 µM | > 100 µM | 51.1 µM | 69.8 µM | 84 µM | 54.2 µM | > 100 µM | > 100 µM |  |  |  |  |  |  |  |  |  |  |
| CC(=O)/C(=C\c1cccc([N+](=O)[O-])c1)C(=O)Nc1ccccc1C | > 100 µM | > 100 µM | > 100 µM | > 100 µM | > 100 µM | > 100 µM | > 100 µM | > 100 µM | > 100 µM | > 100 µM |  |  |  |  |  |  |  |  |  |  |
| CCN(CC)c1ccc(-c2cc(-c3cc(OC)c(OC)c(OC)c3)nc(N3CCOCC3)c2C#N)cc1 | > 44.5 µM | 4.42 µM | 0.791 µM | 42.2 µM | 83.3 µM | 3.98 µM | 0.845 µM | > 100 µM | > 100 µM | > 100 µM | 0.796 µM | 0.189 µM | 2.34 µM | 7.07 µM | 0.809 µM | 0.219 µM | 3.22 µM | 2.57 µM | 2.99 µM | 0.611 µM |
| CC(=O)OC1=CC(n2cc(F)c(=O)[nH]c2=O)OC(C)C1=O (stereo unspecified) | > 100 µM | > 100 µM | > 100 µM | > 100 µM | > 100 µM | > 100 µM | > 100 µM | > 100 µM | > 100 µM | > 100 µM |  |  |  |  |  |  |  |  |  |  |
| Cc1cc(O)c(/C=N/C(=S)NCc2ccccc2)c(=O)o1 | > 100 µM | > 100 µM | > 100 µM | > 100 µM | > 100 µM | > 100 µM | > 100 µM | > 100 µM | > 100 µM | > 100 µM |  |  |  |  |  |  |  |  |  |  |
| O=C(/C=C/c1ccncc1)c1cc(Cl)ccc1O | 36.2 µM | 19.6 µM | 29.2 µM | 58 µM | 29.6 µM | 34.8 µM | 34.4 µM | 87.7 µM | 49.7 µM | 26.7 µM | 4.65 µM | 13.2 µM | 22.7 µM | 14.1 µM | 15.3 µM | 19.2 µM | 27.4 µM | 22.2 µM | 11 µM | 7.95 µM |
| Nc1ncnc2c1nnn2C1OC(CO)C(O)C1O (stereo unspecified) | 27.9 µM | 7 µM | 3.77 µM | 12 µM | 4.51 µM | 7.59 µM | 5.63 µM | 1.95 µM | 10.9 µM | 6.02 µM |  |  |  |  |  |  |  |  |  |  |
